From patent EP0908457B1, “3-(1,2-benzisothiazol- and isoxazol-5-Y1)-2,4(1H,3H)-pyrimidinedione or thione and 3-(1,2-benzisothiazol- and isoxazol-5-y1)-4(3H)-pyrimidinone or thione herbicidal agents” (BASF AKTIENGESELLSCHAFT, priority 1997, dated 1999)

Tests used:
[1] = test system: Cyperus serotinus, Rottb.; experiment: Preemergence weed control under flooded paddy conditions, CYPSE (Flatsedge); assay type: in vivo; conditions: preemergence weeds, herbicidal effect rating 0-9, three to four weeks after treatment
Sagittaria pygmaea, L. [2] = experiment: Preemergence weed control under flooded paddy conditions, SAGPY (Arrowhead (Pygmaea)); assay type: in vivo; conditions: preemergence weeds, flooded paddy, herbicidal effect rating 0-9, three to four weeks after treatment
[3] = test system: Monochoria vaginalis, Presl.; experiment: Preemergence weed control under flooded paddy conditions, MOOVA (Monochoria); assay type: in vivo; conditions: preemergence weeds, flooded paddy, herbicidal effect rating 0-9, three to four weeks after treatment
[4] = test system: Echinochloa oryzoides (Ard.) Fritsch.; experiment: Postemergence weed control under flooded paddy conditions, ECHORC (Watergrass (Calif.)); assay type: in vivo; conditions: rated three to four weeks after treatment
Sagittaria pygmaea, L. [5] = experiment: Postemergence weed control under flooded paddy conditions, SAGPY (Arrowhead (Pygmaea)); assay type: in vivo; conditions: rated three to four weeks after treatment
[6] = test system: Echinochloa oryzoides (Ard.) Fritsch.; experiment: Preemergence weed control under flooded paddy conditions, ECHORC (Watergrass (Calif.)); assay type: in vivo; conditions: preemergence weeds, flooded paddy, herbicidal effect rating 0-9, three to four weeks after treatment
Cyperus iria [7] = experiment: Preemergence weed control under flooded paddy conditions, CYPIR (Rice Flatsedge); assay type: in vivo; conditions: preemergence weeds, flooded paddy, herbicidal effect rating 0-9, three to four weeks after treatment
[8] = test system: Oryza sativa, (L.) Tebonnet; experiment: Rice tolerance to post-transplant applications under flooded paddy conditions (Example 188), ORYSAT (Rice, Tebonnet); conditions: rated three to four weeks after treatment
[9] = test system: Cyperus serotinus, Rottb.; experiment: Postemergence weed control under flooded paddy conditions, CYPSE (Flatsedge); assay type: in vivo; conditions: rated three to four weeks after treatment
[10] = test system: Oryza sativa, (L.) Tebonnet; experiment: Rice tolerance to post-transplant applications under flooded paddy conditions (Example 187), ORYSAT (Rice, Tebonnet); conditions: herbicidal effect rating 0-9, three to four weeks after treatment
[11] = test system: Monochoria vaginalis, Presl.; experiment: Postemergence weed control under flooded paddy conditions, MOOVA (Monochoria); assay type: in vivo; conditions: rated three to four weeks after treatment
Cyperus iria [12] = experiment: Postemergence weed control under flooded paddy conditions, CYPIR (Rice Flatsedge); assay type: in vivo; conditions: rated three to four weeks after treatment

SMILES: COc1ccc(I)cc1-c1nsc2ccc(-n3c(=O)cc(C(F)(F)F)n(C)c3=O)cc12 [Example 448, 2,4(1H,3H)-Pyrimidinedione, 3-[3-(5-iodo-2-methoxyphenyl)-1,2-benzisothiazol-5-yl]-1-methyl-6-(trifluoromethyl)-]
- CYPSE ([1]; 0.0320 kg/ha): 4.5
- CYPSE ([1]; 0.0620 kg/ha): 4.5
- CYPSE ([1]; 0.1250 kg/ha): 4.5
- CYPSE ([1]; 0.2500 kg/ha): 6.5
- SAGPY (Sagittaria pygmaea, L. [2]; 0.0320 kg/ha): 0.0
- SAGPY (Sagittaria pygmaea, L. [2]; 0.0620 kg/ha): 1.5
- SAGPY (Sagittaria pygmaea, L. [2]; 0.1250 kg/ha): 2.5
- SAGPY (Sagittaria pygmaea, L. [2]; 0.2500 kg/ha): 3.5
- MOOVA ([3]; 0.0320 kg/ha): 9.0
- MOOVA ([3]; 0.0620 kg/ha): 9.0
- MOOVA ([3]; 0.1250 kg/ha): 9.0
- MOOVA ([3]; 0.2500 kg/ha): 9.0
- herbicidal effect rating, ECHORC ([4]; Rate 0.0620 kg/ha): 0.0
- herbicidal effect rating, ECHORC ([4]; Rate 0.1250 kg/ha): 1.0
- herbicidal effect rating, ECHORC ([4]; Rate 0.2500 kg/ha): 2.0
- herbicidal effect rating, SAGPY (Sagittaria pygmaea, L. [5]; Rate 0.0620 kg/ha): 0.0
- herbicidal effect rating, SAGPY (Sagittaria pygmaea, L. [5]; Rate 0.1250 kg/ha): 0.0
- herbicidal effect rating, SAGPY (Sagittaria pygmaea, L. [5]; Rate 0.2500 kg/ha): 0.0
- ECHORC ([6]; 0.0320 kg/ha): 9.0
- ECHORC ([6]; 0.0620 kg/ha): 9.0
- ECHORC ([6]; 0.1250 kg/ha): 9.0
- ECHORC ([6]; 0.2500 kg/ha): 9.0
- CYPIR (Cyperus iria [7]; 0.0320 kg/ha): 8.5
- CYPIR (Cyperus iria [7]; 0.0620 kg/ha): 9.0
- CYPIR (Cyperus iria [7]; 0.1250 kg/ha): 9.0
- CYPIR (Cyperus iria [7]; 0.2500 kg/ha): 9.0
- herbicidal effect rating, ORYSAT (rice tolerance) ([8]; Rate 0.0620 kg/ha): 0.0
- herbicidal effect rating, ORYSAT (rice tolerance) ([8]; Rate 0.1250 kg/ha): 1.0
- herbicidal effect rating, ORYSAT (rice tolerance) ([8]; Rate 0.2500 kg/ha): 2.0
- herbicidal effect rating, CYPSE ([9]; Rate 0.0620 kg/ha): 0.0
- herbicidal effect rating, CYPSE ([9]; Rate 0.1250 kg/ha): 0.0
- herbicidal effect rating, CYPSE ([9]; Rate 0.2500 kg/ha): 0.0
- ORYSAT ([10]; 0.0320 kg/ha): 3.5
- ORYSAT ([10]; 0.0620 kg/ha): 4.0
- ORYSAT ([10]; 0.1250 kg/ha): 4.0
- ORYSAT ([10]; 0.2500 kg/ha): 4.0
- herbicidal effect rating, MOOVA ([11]; Rate 0.0620 kg/ha): 0.0
- herbicidal effect rating, MOOVA ([11]; Rate 0.1250 kg/ha): 1.0
- herbicidal effect rating, MOOVA ([11]; Rate 0.2500 kg/ha): 4.0
- herbicidal effect rating, CYPIR (Cyperus iria [12]; Rate 0.1250 kg/ha): 7.0
- herbicidal effect rating, CYPIR (Cyperus iria [12]; Rate 0.2500 kg/ha): 9.0
